Measured values taken from PubChem BioAssay (NCI).
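Values below derive from 48-hour exposures of cells grown in 96-well plates, with endpoints linearly interpolated between the two concentrations bracketing the appropriate inhibition level. TGI marks complete inhibition of growth.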

Columns and labels:
Experiment in all cases: NCI anticancer screen, dose series, 48 h
[1] = tested on: MDA-MB-435
[2] = tested on: DU-145 prostate
[3] = tested on: T-47D breast
[4] = tested on: OVCAR-3 ovarian
[5] = tested on: SK-MEL-28 melanoma
[6] = tested on: NCI-H460 lung
[7] = tested on: RXF 393 renal
[8] = tested on: UACC-257 melanoma
[9] = tested on: HCT-15 colon
[10] = tested on: A549 NSCLC
[11] = tested on: UO-31 renal
[12] = tested on: HOP-62 NSCLC
[13] = tested on: HT29 colon
[14] = tested on: KM12 colon
[15] = tested on: CAKI-1 renal
[16] = tested on: NCI-H522 lung
[17] = tested on: OVCAR-4 ovarian
[18] = tested on: SN12C renal
[19] = tested on: HL-60(TB) leukemia
[20] = tested on: BT-549 breast
[21] = tested on: M14 melanoma
[22] = tested on: SW-620 colon
[23] = tested on: HOP-92 NSCLC
[24] = tested on: SK-MEL-2 melanoma
[25] = tested on: HCC-2998 colon
[26] = tested on: LOX IMVI melanoma
[27] = tested on: SF-539 CNS
[28] = tested on: MOLT-4 leukemia
[29] = tested on: MDA-MB-231 breast
[30] = tested on: TK-10 renal
[31] = tested on: NCI-H23 lung
[32] = tested on: NCI/ADR-RES ovarian
[33] = tested on: MDA-N
[34] = tested on: SR leukemia
[35] = tested on: COLO 205 colon
[36] = tested on: OVCAR-5 ovarian
[37] = tested on: SF-295 CNS
[38] = tested on: K-562 leukemia
[39] = tested on: MCF7 breast
[40] = tested on: ACHN renal
[41] = tested on: SK-OV-3 ovarian
[42] = tested on: SNB-19 CNS
[43] = tested on: SNB-75 CNS
[44] = tested on: A498 renal
[45] = tested on: U251 CNS
[46] = tested on: NCI-H226 lung
[47] = tested on: HCT-116 colon
[48] = tested on: 786-0 renal
[49] = tested on: UACC-62 melanoma
[50] = tested on: CCRF-CEM leukemia
[51] = tested on: EKVX NSCLC
[52] = tested on: MALME-3M melanoma
[53] = tested on: SK-MEL-5 melanoma
[54] = tested on: IGROV1 ovarian
[55] = tested on: OVCAR-8 ovarian
[56] = tested on: PC-3 prostate
[57] = tested on: HS 578T breast
[58] = tested on: RPMI-8226 leukemia
[59] = tested on: SF-268 CNS
[60] = tested on: SNB-78 CNS
[61] = tested on: DLD-1 colon
[62] = tested on: KM20L2 colon
[63] = tested on: LXFL 529 NSCLC
[64] = tested on: DMS 273 small cell lung
[65] = tested on: HOP-18 NSCLC
[66] = tested on: XF 498 CNS

Measured: TGI

CC(=O)c1c2c(c3ccccc3c1O)O[C@@H]1OCC[C@H]21
34.2 µM: [43]
not listed: [60] | [61] | [62] | [63] | [64] | [65] | [66]
> 100 µM: all other assays above

NC(=O)c1ccccc1NC(=O)C(=O)C(C(=O)c1ccc(Cl)c(Cl)c1)C1OC(=O)c2ccccc21 (centres undefined)
45.7 µM: [7]
80.4 µM: [52]
39 µM: [47]
56.3 µM: [46]
83.2 µM: [43]
not listed: [1] | [2] | [3] | [5] | [6] | [11] | [16] | [20] | [24] | [26] | [27] | [29] | [30] | [32] | [33] | [37] | [39] | [41] | [53] | [56] | [57]
> 100 µM: all other assays above
